Measured values reported in PubChem BioAssay (NCI).
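Interpolation was linear, between the two tested concentrations surrounding the appropriate level; five concentrations were tested over 48 hours in 96-well plates. GI50 marks 50% less growth. TGI marks complete inhibition of growth.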 Where a SMILES comes first, the peptide text is derived from it. [ ]: non-standard residue; d: D form. The star is where a group is joined. ξ: configuration not given here. ξF = NC(Cc1ccccc1)C(=O)O; Cbz = O=C(OCc1ccccc1)*; Aib = CC(C)(N)C(=O)O

Tests used:
Assay in all cases: DTP human tumour cell line panel, 48 h
[1] = system: 786-0 renal
[2] = system: CAKI-1 renal
[3] = system: DLD-1 colon
[4] = system: DMS 273 small cell lung
[5] = system: M19-MEL melanoma
[6] = system: RXF-631 renal
[7] = system: SF-539 CNS
[8] = system: SK-MEL-2 melanoma
[9] = system: SK-MEL-5 melanoma
[10] = system: SNB-19 CNS
[11] = system: NCI/ADR-RES ovarian

Compound: CCCCOCc1cc(CN2CCN(C)CC2)c(O)c2ncccc12
- TGI [1]: 50.7 µM
- TGI [2]: > 100 µM
- TGI [3]: > 100 µM
- TGI [4]: 40.2 µM
- TGI [5]: > 100 µM
- TGI [6]: > 100 µM
- TGI [7]: 76.7 µM
- TGI [8]: > 100 µM
- TGI [9]: 26.8 µM
- TGI [10]: > 100 µM

Compound: Cc1ccc(C(O)(c2ccc(C)cc2)c2ccccn2)cc1
- TGI [1]: > 100 µM
- TGI [2]: > 100 µM
- TGI [3]: > 100 µM
- TGI [4]: > 100 µM
- TGI [5]: > 100 µM
- TGI [6]: > 100 µM
- TGI [7]: > 100 µM
- TGI [8]: > 100 µM
- TGI [9]: > 100 µM
- TGI [10]: > 100 µM

Compound: CC(=O)ON1C(=O)c2cccc3cccc(c23)C1=O
- TGI [2]: 49 µM
- TGI [11]: > 100 µM
- TGI [7]: 48.3 µM
- TGI [8]: 67.6 µM
- TGI [9]: 28.2 µM
- TGI [10]: > 100 µM

Compound: C(=N\OCCc1ccccc1)/c1cccnc1
- TGI [1]: > 100 µM
- TGI [11]: > 100 µM
- TGI [7]: > 100 µM
- TGI [8]: > 100 µM
- TGI [9]: > 100 µM
- TGI [10]: > 100 µM

Compound: COC(=O)C(C)(C)NC(=O)C(Cc1ccccc1)NC(=O)C(C)(C)NC(=O)OCc1ccccc1 (stereo not given) (Cbz-[Aib]-[ξF]-[Aib]-OMe)
- TGI [2]: > 100 µM
- TGI [11]: > 100 µM
- TGI [9]: > 100 µM
- TGI [10]: > 100 µM

Compound: NCCSCc1ccccc1Cl
- TGI [1]: > 100 µM
- TGI [2]: > 100 µM
- TGI [11]: > 100 µM
- TGI [8]: 87.5 µM
- TGI [9]: > 100 µM
- TGI [10]: > 100 µM

Compound: Nc1nc2ccc(OCC(O)CN3CCCCC3)cc2[n+]([O-])n1 (stereo not given)
- TGI [1]: > 100 µM
- TGI [2]: > 100 µM
- TGI [11]: > 100 µM
- TGI [7]: > 100 µM
- TGI [8]: > 100 µM
- TGI [9]: > 100 µM
- TGI [10]: > 100 µM

Compound: Nc1c(-c2ccccc2[N+](=O)[O-])nc2ccccn12
- TGI [3]: > 100 µM
- TGI [4]: > 100 µM
- TGI [5]: > 100 µM
- TGI [8]: > 100 µM
- TGI [9]: > 100 µM

Compound: COc1cc(-c2n/c(=C\c3c(O)[nH]c4cc(Cl)ccc34)cc3c2=Nc2ccccc2-3)cc(OC)c1OC
- GI50 [2]: 10.9 µM
- TGI [2]: 60 µM
- GI50 [11]: 2.84 µM
- TGI [11]: 20.1 µM
- GI50 [7]: 11.2 µM
- TGI [7]: 30.8 µM
- GI50 [8]: 2.51 µM
- TGI [8]: 12.3 µM
- GI50 [9]: 3.98 µM
- TGI [9]: 23 µM
- GI50 [10]: 3.52 µM
- TGI [10]: 15.5 µM

Compound: CC(C)(CCCCC(C)(C)C1NC(=O)N1)C1NC(=O)N1
- TGI [2]: > 10 µM
- TGI [11]: > 10 µM
- TGI [7]: > 10 µM
- TGI [8]: > 10 µM
- TGI [9]: > 10 µM
- TGI [10]: > 10 µM

Compound: c1cncc(O[Si](Oc2cccnc2)(Oc2cccnc2)Oc2cccnc2)c1
- TGI [2]: > 100 µM
- TGI [3]: > 100 µM
- TGI [4]: > 100 µM
- TGI [5]: > 100 µM
- TGI [6]: > 100 µM
- TGI [7]: > 100 µM
- TGI [8]: > 100 µM
- TGI [9]: > 100 µM
- TGI [10]: > 100 µM

Compound: C[CH2][Ge]([CH2]C)([CH2]C)[O]C(=O)CCC(=O)[O][Ge]([CH2]C)([CH2]C)[CH2]C
- GI50 [2]: > 100 µM
- TGI [2]: > 100 µM
- GI50 [3]: 38.7 µM
- TGI [3]: > 100 µM
- GI50 [4]: 85.9 µM
- TGI [4]: > 100 µM
- GI50 [5]: > 100 µM
- TGI [5]: > 100 µM
- GI50 [7]: > 100 µM
- TGI [7]: > 100 µM
- GI50 [8]: > 100 µM
- TGI [8]: > 100 µM
- GI50 [10]: > 100 µM
- TGI [10]: > 100 µM
